According to ChEMBL document CHEMBL1132161, “Therapeutic potential and strategies for inhibiting tumor necrosis factor-alpha” (J Med Chem, 1999):

Test: Compound was tested for the inhibition of IL1-beta and interleukin-6-production
Assay type: functional

Structure (SMILES): Nc1ncnc2c1ncn2[C@@H]1CC[C@@H](O)C1
- IC50: 9 µM
